Assay results: paper PMC8068288, “Novel Thiol Containing Hybrid Antioxidant-Nitric Oxide Donor Small Molecules for Treatment of Glaucoma” (Antioxidants, 2021)
Where two headings read alike, the source gives them in different places.

How the values were obtained:
[1] = Hypochlorous acid (HOCl) radical scavenging assay (TNB) in buffer; type: biochemical
Description: This assay used the redox reaction between 5-thio-2-nitrobenzoic acid (TNB) and HOCl to form dithio-TNB. Using the method described previously, we assessed the % TNB remaining with or without treatment with SA compounds. Compounds SA-2, SA-9, and SA-10 were used in concentrations ranging from 0.1 µM, 1 µM, 10 µM, 100 µM, and 1000 µM. Lipoic acid (1 mM) was used as positive control.

[2] = system: NTM-5 cells; assay: In vitro cell viability (MTT) assay; settings: NTM-5 cells, 24 h, up to 1000 µM
Description: NTM-5 cells (6000 cells/well) were seeded in 96-well plates to confluency. […] The cell viability and proliferation were measured using MTT assays (CellTiter 96® AQueous One Solution Cell Proliferation Assay, Promega Madison, WI, USA) following manufacturer instruction. The experiments were repeated twice with four technical replicates.

[3] = Total nitrite/NO release by Griess assay in buffer (aqueous stability); type: physicochemical; settings: even after 3 days
Description: The total nitrite released from the compounds in buffer and in cell supernatant were measured by Griess assay as reported by us previously. In brief, compounds (SA-2, SA-9, and SA-10) in buffer at different concentrations (1 mM, 500 µM, 250 µM 125 µM, 62.5 µM, 31.25 µM, and 15.625 µM) or supernatant collected from Human transformed trabecular meshwork (NTM-5) cells were added to a 96-well plate. 1% Sulphanilamide in 5% phosphoric acid and 0.1% N-1-napthylethylenediamine dihydrochloride (NED) were added to experimental samples sequentially at room temperature and away from light. SIN-1 was used as reference standard. […]

[4] = system: NTM-5 cells; assay: Total nitrite release by Griess assay in NTM-5 cell supernatant; type: cell-based, human
Description: The total nitrite released from the compounds in buffer and in cell supernatant were measured by Griess assay as reported by us previously. In brief, compounds (SA-2, SA-9, and SA-10) in buffer at different concentrations (1 mM, 500 µM, 250 µM 125 µM, 62.5 µM, 31.25 µM, and 15.625 µM) or supernatant collected from Human transformed trabecular meshwork (NTM-5) cells were added to a 96-well plate. 1% Sulphanilamide in 5% phosphoric acid and 0.1% N-1-napthylethylenediamine dihydrochloride (NED) were added to experimental samples sequentially at room temperature and away from light. SIN-1 was used as reference standard. UV Absorbances (Cytation 5) were measured at specific timepoints (0, 5 min, 10 min, 15 min, 30 min, 24 h, and 28 h) at 520 nm.
The experiments were repeated twice with four technical replicates.

[5] = system: NTM-5 cells; assay: In vitro cytoprotection assay against TBHP (MTT); type: cell-based; settings: Homo sapiens, TBHP 350 µM, read-out: EC50 of increase in cell viability (cytoprotection)
Description: After 24 h of treatment, cell proliferation was measured using MTT assay. All the experiments are done in duplicate with four experimental replicates.

[6] = system: NTM-5 cells; assay: In vitro peroxynitrite measurement assay; type: cell-based, human; settings: 0.1 µM and 1 mM, with or without TBHP 350 µM
Description: Human transformed trabecular meshwork (NTM-5) cells (20,000 cells/well/90 µL) were seeded in 96-well plates (Griener bio-one black plate) and stained with 10 µL of 10X Peroxynitrite Sensor Green solution for 1 h. […] SIN-1 was used as a positive control. Detection of peroxynitrite was done using Peroxynitrite Assay Kit (abcam-ab233468-cell based). Fluorescence signals were measured using a microplate reader (Cytation5) at Ex/Em = 485/530 nm at time intervals (15 min, 30 min, 1 h, 2 h, and 3 h). The experiments were done in duplicates.

[7] = Superoxide anion radical scavenging assay (pyrogallol/WST-1) in buffer; type: biochemical
Description: The ROS scavenging ratio was determined using a chemical assay where WST-1 was used as superoxide scavenger produced by pyrogallol following a reported protocol. Briefly, the superoxide anion radical scavenging activity was determined spectrophotometrically by measuring the formation of WST-1 formazan at 450 nm. WST-1 (40 µL, 50 µM) was added to the compounds (or corresponding solution) in a final volume of 160 µL in 50 mM ammonium hydrogen carbonate buffer, 0.5 mM EDTA, pH 9.3. Reaction was launched by adding 40 µL 1 mM pyrogallol. The operation was based on the 96-well microplate, and measurement was performed at different time points under 37 °C by Cytation5 Microplate Reader. Baicalein (1 mM) was used as positive control. Compounds SA-2, SA-9, and SA-10 were used in concentrations ranging from 1 µM, 10 µM, 100 µM, and 1000 µM. The superoxide anion radical scavenging ratio % was calculated according to the following formula:Scavenging ratio (%) = A0 − (A1 − A2)/A0 × 100%

[8] = Ocular biodistribution after SA-9 and SA-9 NPs eye drop; type: in vivo; settings: topical, 30 µL of 2% SA-9 solution, mouse, 1 h after single eye drop of 2% SA-9 solution

With `Cl.[NH-]c1c[n+](C2CCSCC2)no1` [SA-9, (3-(tetrahydro-2H-thiopyran-4-yl)-1,2,3-oxadiazol-3-ium-5-yl)amide hydrochloride] as the compound, how does the “fold more potent than lipoic acid in HOCl scavenging” value ([1]; 0.1 µM vs. 1 mM lipoic acid, 30 min) read?
The value was 10,000 fold.

What about the “duration of HOCl scavenging effect” value ([1]; 0.1 µM–1000 µM in buffer) of the same compound?
Its value is > 1 h.

And the cytotoxicity [2]?
The cytotoxicity was “no cytotoxicity”.

And the “NO release in buffer” value [3]?
Its value is “did not observe any NO release”.

What about the “NO released in NTM-5 cell supernatants” value ([4]; 28 h at 37 °C) of the same compound?
The value was “dose dependently”.

And the “start of NO release” value ([4]; buffer solution and TM cells)?
The value was > 24 h.

What about the EC50 [5] of the same compound?
Its EC50 is 1000 nM.

What about the “ONOO− radical formation” value [6] of the same compound?
Its value is “significantly less amount of radicals”.

What about the “AUC0–2.5 h of % superoxide scavenging response” value ([7]; 1 mM compound, pyrogallol 1 mM, buffer) of the same compound?
Its value is 1355 ± 42.62.

And the “earliest time of superoxide (O2−) radical scavenging” value ([7]; buffer solution and TM cells)?
Its value is 7 min.

What about the superoxide radicals scavenged ([7]; buffer, dose response 1-1000 µM) of the same compound?
The superoxide radicals scavenged was 16–40%.

And the “AUC0-15 of % superoxide scavenging response” value ([7]; different concentrations 1-1000 µM, 15 minutes time point, buffer)?
Its value is 5972± 834.9.

And the concentration at 1 h ([8]; choroid + sclera, read-out: concentration of SA-9 in choroid + sclera)?
Its concentration at 1 h is 28900 ± 2500 ng/g.

And the concentration at 1 h ([8]; lens, read-out: concentration of SA-9 in lens)?
The concentration at 1 h was 20500 ± 8300 ng/g.

What about the concentration at 1 h ([8]; optic nerve, read-out: concentration of SA-9 in ON) of the same compound?
The concentration at 1 h was 1300 ± 90 ng/g.

What about the concentration at 1 h ([8]; retina, read-out: concentration of SA-9 in retina) of the same compound?
The concentration at 1 h was 8250 ± 10200 ng/g.
